Marks after values point to notes of the source that are not given here.
How the values were obtained:
[1] = test system: Eimeria tenella protozoan (sporozoite); test: Direct killing effect against Eimeria tenella protozoan (sporozoite), microscopic count of alive sporozoites; conditions: for concentration showing death rate of 50% or more against the protozoan: tested 16 to 500 ppm
Experimental: In the present example, protozoan (sporozoite) direct killing ability evaluation was conducted against 1 representative Eimeria kind known to be infected in most farms (E. tenella).
A certain amount of oocysts of each coccidial protozoan was put in a tube containing glass beads and pulverized, and then to remove the crushed oocyst cell wall and other debris, internal sporocysts were purified using the percoll density gradient, and washed with PBS solution. A reagent comprising sodium taurocholic acid (Sigma aldrich, USA) and trypsin (Gibco, USA), respectively, was treated to sporocysts of Eimeria tenella for excystation of the internal sporozoites, and they were incubated, and then they were washed with PBS solution once and the protozoa were obtained.
After reacting the pterostilbene, pinostilbene and anticoccidial agents, diclazuril and gallic acid (hereinafter, material) with the protozoan of Eimeria tenella at various concentrations of 16 to 500 ppm, respectively, only alive protozoa (sporozoites) were counted through microscopic observation.

[2] = test system: Eimeria tenella; test: In vivo anticoccidial efficacy evaluation in broilers challenge-inoculated with Eimeria tenella; set-up: species or system Ross broilers; key to ACI: ACI out of 200 points; higher = better; ≥160 very excellent; Lesion index / Oocyst index: scale not given here; conditions: for Survival rate after challenge inoculation (%): Eimeria tenella-infected broilers, 10,000 oocysts oral, up to 8th day after challenge; for Survival rate after challenge inoculation (%) / BWG after challenge inoculation (g/d) / ACI / Lesion score / Oocyst index / Lesion index / Daily weight gain compared to negative control group (RWG, %): feed with salinomycin 60 ppm, resveratrol 125 ppm or pterostilbene 125 ppm; for BWG after challenge inoculation (g/d) / anticoccidial index: Eimeria tenella-infected broilers; for BWG after challenge inoculation (g/d): before challenge to 7th day after; for anticoccidial index: Table 5; for ACI: anticoccidial index by Equation 2, out of 200 points; for Lesion score: appendix lesion, scale 0-4, 8th day after challenge; for anticoccidial efficacy compared with salinomycin: comparison of anticoccidial index with salinomycin treatment group; for Oocyst index: index from oocyst excretion (%) compared to infected negative control group; for Lesion index: lesion score x 10; for Daily weight gain compared to negative control group (RWG, %): relative to non-infected negative control group
Experimental: An in vivo anticoccidial efficacy evaluation test was performed in an animal experiment facility in Gyeongsangnam-do, South Korea. One-day-old female Ross broilers were individually weighed and randomly divided into groups to use in an experiment. Matters and conditions for experimental design were described in Table 2.
A breeding farm was managed according to the Korean poultry breeding management guidelines. Cages and the breeding farm were cleaned and disinfected before starting the test. The temperature of […] and the humidity of 40 to 50% of the breeding farm were maintained, and it was continuously monitored. General feed was fed according to the nutritional requirements of broilers, and the mixing ratio was described in Table 3.
To the general feed (Table 3), each material (salinomycin (CAS No. 53003-10-4), resveratrol (sigma) or pterostilbene (sigma) was added at a concentration described in Table 4 below, respectively, and was self-mixed.
Antibiotics and supplements were not used in general feed and mixed feed, and no anticoccidial agent other than each material was added. Broilers were fed ad libitum throughout the experiment period. After putting 6 1-day-age broilers in cages randomly placed for each of the control group or test group and breeding, general feed was fed for 14 days, and then the mixed feed prepared above was ingested by dividing by control group or test group.
Coccidiosis induction was performed by oral inoculation (challenge inoculation) in an oral tube type of 10,000 oocysts (eggs) with over 90% mature (sporulation) Eimeria tenella per one individual to 21-day-old broilers.
The anticoccidial efficacy by test group designed in Example 1-2 above was shown as an anticoccidial index (ACI), and the anticoccidial index was calculated by Equation 2 below. The ACI score is out of 200 points, and the higher the ACI score, the more excellent the anticoccidial ability, and when it is 120 points or more to less than 140 points, it is determined that it is effective as an anticoccidial material, and when it is 140 points or more to less than 160 points, it is determined that it is excellent as an anticoccidial material, and when it is 160 points or more, it is determined that the anticoccidial effect is very excellent (Luis Miguel De Pablos et al., Anticoccidial activity of maslinic acid against infection with Eimeria tenella in chickens, Parasitol Res, 2010). Anticoccidial index(ACI)=(survival rate after challenge inoculation (%))+(daily weight gain compared to negative control group(RWG, %))−(lesion score×10)−(fecal oocyst excretion amount index) (Equation 2)
1) Survival rate: the number of dead individuals was recorded daily, and post mortem autopsy was performed to determine a cause of mortality, and the number of individuals who died due to causes other than coccidiosis was excluded. The survival rate (%) up to the 8th day after challenge inoculation was used for anticoccidial index calculation. The measured survival rate was described in Table 5 below.
2) Daily weight gain: body weight was measured for each cage before challenge inoculation with a protozoan into an individual and at the 7th day after challenge inoculation, and the difference was divided by the number of days to calculate the daily weight gain (ADG, g/d). ‘Daily weight gain compared to the negative control group (RWG, %)’ which was calculated by dividing the daily weight gain (ADG, average daily gain; g/d) of each experimental group by the weight gain (ADG, g/d) of the non-infected negative control group and multiplying by 100 was used for anticoccidial index calculation. The daily weight gain (ADG, g/d) measured in each control group and test group and the daily weight gain compared to the negative control group (RWG, %) were shown in Table 5 below.
3) Lesion scoring: On the 8th day after challenge inoculation, an autopsy was conducted for 6 broilers per cage, and the intestines were incised and opened. […]

Structure (SMILES)	Protozoal death rate by material treatment concentration (%) ([1]; 16 ppm)	Protozoal death rate by material treatment concentration (%) ([1]; 32 ppm)	Protozoal death rate by material treatment concentration (%) ([1]; 62 ppm)	Protozoal death rate by material treatment concentration (%) ([1]; 125 ppm)	Protozoal death rate by material treatment concentration (%) ([1]; 250 ppm)	Protozoal death rate by material treatment concentration (%) ([1]; 500 ppm)	concentration showing death rate of 50% or more against the protozoan [1] [ppm]	Survival rate after challenge inoculation (%) [2] [%]	BWG after challenge inoculation (g/d) [2]	anticoccidial index [2] [points]	ACI [2]	Lesion score [2]	anticoccidial efficacy compared with salinomycin [2]	Oocyst index [2]	Lesion index [2]	Daily weight gain compared to negative control group (RWG, %) [2] [%]
N#CC(c1ccc(Cl)cc1)c1c(Cl)cc(-n2ncc(=O)[nH]c2=O)cc1Cl (stereo not shown) [Diclazuril, diclazuril, reference compound]	0	0	0	0	35	44										
O=C(O)c1cc(O)c(O)c(O)c1 [Gallic acid, gallic acid, reference compound]	0	0	0	0	26	32										
COc1cc(O)cc(/C=C/c2ccc(O)cc2)c1 [Pinostilbene, 3-Methoxy-4′,5-dihydroxy-trans-stilbene]	0	0	0	0	50.5	61.3	≥ 250									
COc1cc(/C=C/c2ccc(O)cc2)cc(OC)c1 [Pterostilbene, 3,5-Dimethoxy-4′-hydroxystilbene]	33.3	63.4	74.2	100	100	100	≥ 32	100	389^bc g/d	151	151	2.8^b	equivalent or superior	10	28	89
Oc1ccc(/C=C/c2cc(O)cc(O)c2)cc1 [Resveratrol]								100	381^bcd g/d	149	149	2.95	equivalent or superior	10	29	87
CC[C@@H](C(=O)[C@@H](C)[C@@H](O)[C@H](C)[C@@H]1O[C@@H]([C@@H](CC)C(=O)O)CC[C@@H]1C)[C@H]1O[C@]2(C=C[C@@H](O)[C@]3(CC[C@@](C)([C@H]4CC[C@](O)(CC)[C@H](C)O4)O3)O2)[C@H](C)C[C@@H]1C [Salinomycin, salinomycin, reference compound]								100	360^cd g/d	149	149	2.3^c		10	23	82
